These results are taken from patent publication US20170315129A1, “CANCER CELL DETECTION METHOD USING LIVING BODY-DERIVED CELLS OF BIOLOGICAL ORIGIN” (Hirosaki University, priority 2014, published 2017).

The subject of test [1] is ascites cells obtained during an operation of a patient with ovarian cancer (serous adenocarcinoma). Description: Live-cell fluorescence imaging of cells in peritoneal washing, ovarian cancer patient (Example 1). The test is classed as cell-based, human. To be noted: 100 μM 2-NBDLG and 20 μM 2TRLG in KRB, 5 minutes 37° C., FIG. 2B. On the procedure:
Immediately after the start of laparotomy for ovarian cancer (serous adenocarcinoma), the peritoneal cavity was washed with physiological saline for the purpose of collecting an ascitic fluid. A surplus portion of the resulting peritoneal washing was transferred into a 50 mL centrifuge tube. Subsequently, it was centrifuged at 1500 G for 2 minutes at room temperature, the supernatant was removed by decantation, and the pellet was dispersed by adding 2 mL of Krebs Ringer Buffer (KRB solution, see below) to obtain an ascites-cell suspension.
NaCl 129.0 mM, KCl 4.75 mM, KH2PO41.19 mM, MgSO4.7H2O 1.19 mM, CaC12.2H2O 1.0 mM, NaHCO35.02 mM, D-Glucose 5.6 mM, HEPES 10.0 mM (an adequate amount of 1M NaOH was added to adjust the pH to 7.35). […]
For fluorescence observation, observation and image acquisition were performed as follows after mounting the glass pate on a glass-slide holder dedicated for an all-in-one fluorescence microscope BZ-X700 (Keyence Corporation). […] Bright field images and fluorescence images of the target cells were taken at a high magnification of 40× or 100×. Commercially available filters for BZ-X700 were used for fluorescence detection. A GFP filter for BZ-X (green channel, OP-87763, Ex 470/40 nm, Em 525/50 nm, DM 495 nm) was used for fluorescence observation of 2-NBDLG. […]

The test system of test [2] is pancreatic cancer cells. To be noted: in vitro culture cells such as pancreatic cancer cells or cancer-bearing mice; cited from earlier work.
Test [3] concerns cultured cells. To be noted: 2-TRLG and 2-NBDLG applied together to cultured cells; cited from earlier work.

As to `O=C[C@@H](Nc1ccc([N+](=O)[O-])c2nonc12)[C@H](O)[C@@H](O)[C@@H](O)CO` [2-NBDLG, 2-[N-(7-nitrobenz-2-oxa-1,3-diazole-4-yl)amino]-2-deoxy-L-glucose], the “fluorescence from 2-NBDLG (green wavelength region)” value in test [1] (apparent peritoneal mesothelial cells) is recorded as “do not show fluorescence”; in test [1] (morphologically suspected cancer cells) it was “intense fluorescence”. The “uptake into cancer cells” value in test [2] is recorded as “specific uptake”. Further, the “uptake into cells having damaged plasma membranes or showing nonspecific uptake such as phagocytosis” value in test [3] is on record as “taken up into cells having damaged plasma membranes”.
